Where two headings read alike, the source gives them in different places.
Assays:
in vivo = details: female, CB-17 SCID, mouse; for MRT last: MRTlast
ErbB2 tyrosine kinase = details: read-out: IC50, ErbB2 tyrosine kinase; in vitro kinase assay; ref EGF10027 protocol, CIB RM2000/00481/06; cited from earlier work
[1] = mice; ref EGF10027 protocol, CIB RM2000/00481/06; cited from earlier work
[2] = cited from earlier work; for frequency of achieving ≥75% inhibition of one of four key biomarkers (p-EGFR, p-ErbB2, p-ERK1/2, p-AKT): tumor
[3] = kidney, oral, 100 mg/kg, Concentration, individual animals 1-3, kidney, 100 mg/kg BID
[4] = kidney, oral, 100 mg/kg, single dose
[5] = kidney, oral, 200 mg/kg, single dose
[6] = kidney, oral, 200 mg/kg, Concentration, individual animals 1-3, kidney, 200 mg/kg QD
[7] = kidney, po, 100 mg/kg, 100 mg/kg BID, multiple doses
[8] = kidney, po, 200 mg/kg, 200 mg/kg QD, multiple doses
[9] = liver, oral, 100 mg/kg, single dose
[10] = liver, oral, 100 mg/kg, Concentration, individual animals 1-3, liver, 100 mg/kg BID
[11] = liver, oral, 200 mg/kg, single dose
[12] = liver, oral, 200 mg/kg, Concentration, individual animals 1-3, liver, 200 mg/kg QD
[13] = liver, po, 100 mg/kg, 100 mg/kg BID, multiple doses
[14] = liver, po, 200 mg/kg, 200 mg/kg QD, multiple doses
[15] = tumor, oral, 100 mg/kg, Concentration, individual animals 1-3, tumor, 100 mg/kg BID
[16] = tumor, oral, 200 mg/kg, Concentration, individual animals 1-3, tumor, 200 mg/kg QD

CS(=O)(=O)CCNCc1ccc(-c2ccc3ncnc(Nc4ccc(OCc5cccc(F)c5)c(Cl)c4)c3c2)o1 [lapatinib]
concentration at 72 h (in vivo; [3]): 94.5 ng/mL | concentration at 96 h (in vivo; [3]): 47.9 ng/mL | MRT last (in vivo; [4]): 7.7 h | Tmax (in vivo; [4]): 1 h | AUC(0-t) (in vivo; kidney, oral, 200 mg/kg, AUClast, single dose): 633 µg·h/mL | Cmax (in vivo; [5]): 64900 ng/mL | concentration at 1 h (in vivo; [6]): 48300 ng/mL | concentration at 24 h (in vivo; kidney, oral, 200 mg/kg, Concentration, individual animals 1-3, kidney, 200 mg/kg QD, 24 h): 144 ng/mL | concentration at 72 h (in vivo; [6]): 77.3 ng/mL | concentration at 96 h (in vivo; [6]): 49.9 ng/mL | MRT last (in vivo; [5]): 9 h | Tmax (in vivo; [5]): 12 h | AUC(0-t) (in vivo; kidney, po, 100 mg/kg, AUClast, 100 mg/kg BID, multiple doses): 1170 µg·h/mL | Cmax (in vivo; [7]): 98500 ng/mL | MRT last (in vivo; [7]): 8.4 h | Tmax (in vivo; [7]): 10 h | AUC(0-t) (in vivo; kidney, po, 200 mg/kg, AUClast, 200 mg/kg QD, multiple doses): 1320 µg·h/mL | Cmax (in vivo; [8]): 136000 ng/mL | MRT last (in vivo; [8]): 8 h | Tmax (in vivo; [8]): 10 h | AUC(0-t) (in vivo; liver, oral, 100 mg/kg, AUClast, single dose): 414 µg·h/mL | Cmax (in vivo; [9]): 46700 ng/mL | concentration at 1 h (in vivo; [10]): 107000 ng/mL | concentration at 4 h (in vivo; [10]): 90700 ng/mL | concentration at 48 h (in vivo; [10]): 193 ng/mL | concentration at 72 h (in vivo; [10]): 121 ng/mL | concentration at 96 h (in vivo; [10]): 66.9 ng/mL | MRT last (in vivo; [9]): 7.5 h | Tmax (in vivo; [9]): 1 h | AUC(0-t) (in vivo; liver, oral, 200 mg/kg, AUClast, single dose): 1050 µg·h/mL | Cmax (in vivo; [11]): 110000 ng/mL | concentration at 1 h (in vivo; [12]): 137000 ng/mL | concentration at 4 h (in vivo; [12]): 223000 ng/mL | concentration at 48 h (in vivo; [12]): 173 ng/mL | concentration at 72 h (in vivo; [12]): 101 ng/mL | concentration at 96 h (in vivo; [12]): 98.3 ng/mL | MRT last (in vivo; [11]): 9.4 h | Tmax (in vivo; [11]): 12 h | AUC(0-t) (in vivo; liver, po, 100 mg/kg, AUClast, 100 mg/kg BID, multiple doses): 1380 µg·h/mL | Cmax (in vivo; [13]): 119000 ng/mL | MRT last (in vivo; [13]): 8 h | Tmax (in vivo; [13]): 10 h | AUC(0-t) (in vivo; liver, po, 200 mg/kg, AUClast, 200 mg/kg QD, multiple doses): 2110 µg·h/mL | Cmax (in vivo; [14]): 240000 ng/mL | MRT last (in vivo; [14]): 8.4 h | Tmax (in vivo; [14]): 10 h | half-life (in vivo; tumor, oral): 15.6 h | concentration at 4 h (in vivo; [15]): 51400 ng/mL | concentration at 10 h (in vivo; [15]): 59200 ng/mL | concentration at 4 h (in vivo; [16]): 47400 ng/mL | concentration at 10 h (in vivo; [16]): 71800 ng/mL | AUC(0-t) (in vivo; tumor, po, 100 mg/kg, AUC 0–12, tumor, median (range), n = 3, after fifth dose of 100 mg/kg BID): 396 µM·h | AUC(0-t) (in vivo; tumor, po, 200 mg/kg, AUC 0–24, tumor, median (range), n = 3, after third dose of 200 mg/kg QD): 1950 µM·h | half-life (in vivo; whole blood, oral): 3.9 h | AUC(0-t) (in vivo; whole blood, po, 100 mg/kg, AUC 0–12, blood, median (range), n = 3, after fifth dose of 100 mg/kg BID): 104 µM·h | AUC(0-t) (in vivo; whole blood, po, 200 mg/kg, AUC 0–24, blood, median (range), n = 3, after third dose of 200 mg/kg QD): 739 µM·h | IC50 (ErbB2 tyrosine kinase): 9 nM | single intravenous dose with no deaths [1]: up to 46 mg/kg | single oral dose with no deaths [1]: up to 2,000 mg/kg | incidence of rash ([2]; cancer patients, preliminary, ref study EGF10004): 12% | maximum tolerated dose (not reached at maximum dose given) ([2]; patients, ref preliminary analysis of EGF10004): > 1800 mg/day | frequency of achieving ≥75% inhibition of one of four key biomarkers (p-EGFR, p-ErbB2, p-ERK1/2, p-AKT) ([2]; 500 mg once daily, ref study EGF10004, listed as GW572016): 29% | frequency of achieving ≥75% inhibition of one of four key biomarkers (p-EGFR, p-ErbB2, p-ERK1/2, p-AKT) ([2]; 650 mg once daily, ref study EGF10004, listed as GW572016): 50% | frequency of achieving ≥75% inhibition of one of four key biomarkers (p-EGFR, p-ErbB2, p-ERK1/2, p-AKT) ([2]; 900 mg once daily, ref study EGF10004, listed as GW572016): 44% | frequency of achieving ≥75% inhibition of one of four key biomarkers (p-EGFR, p-ErbB2, p-ERK1/2, p-AKT) ([2]; 1200 mg once daily, ref study EGF10004): 75% | frequency of achieving ≥75% inhibition of one of four key biomarkers (p-EGFR, p-ErbB2, p-ERK1/2, p-AKT) ([2]; 1600 mg once daily, ref study EGF10004, listed as GW572016): 83%

— PMC4646457 (PLoS ONE, 2015)
